From patent EP0619297B1, “Fungicides for the control of take-all desease of plants” (MONSANTO COMPANY, priority 1993, dated 1994)
Values after ≈ are worked out from the molar mass of the structure shown. Like-named read-outs stand apart in the source and are kept apart here.

Legend:
[1] = system: Gaeumannomyces graminis var. tritici (Ggt); experiment: In vitro assay: mycelial growth on minimal media agar plates (Percent Inhibition; IC50); assay type: cell-based; conditions: for inhibition at 0.1 ppm: read-out: In vitro(ppm) 0.1, Percent Inhibition; for inhibition at 1 ppm: read-out: In vitro(ppm) 1, Percent Inhibition; for inhibition at 10 ppm: read-out: In vitro(ppm) 10, Percent Inhibition; for IC50: interpolated from percent inhibition at 1, 0.1, 0.01, 0.001 and 0.0001 ppm
Experimental: The test compounds (0.25 mL of an appropriate stock solution in acetone) are incorporated into 25 mL minimal media agar [prepared by autoclaving a solution of 17.5 g Czapek Dox broth (Difco), 7.5 g purified agar or Bacto-agar (Difco), and 500 mL distilled/deionized water, and then adding 50 µL of 1 mg/mL thiamine hydrochloride and 50 µL of 1 mg/mL biotin in 5% ethanol] and plates are prepared.
Each plate is inoculated by placing in a triangular shape three 4-mm plugs of Gaeumannomyces graminis var. tritici (Ggt) grown on the minimal media agar described above. The plates are incubated in the dark at 19 - 20 °C for 4 to 5 days. The growth of the fungus is measured as the diameter of the mycelial growth. The result is expressed as Percent Inhibition, calculated as [1 - [(mm growth on treated plate - 4)/(mm growth on control plate - 4)]] x 100.
To determine IC5O values, an in vitro assay was run on each compound at the concentrations of 1, 0.1, 0.01, 0.001, and 0.0001 ppm. The percent inhibition was calculated for each concentration using the equation described in the in vitro assay under the section on Biological Assays. Using the two ordered pairs of (concentration, % inhibition) that bracket 50% inhibition of fungal growth, the concentration for 50% inhibition is calculated from the following equation. IC50 = [(50-I2 )C1 + (I1 -50)C2 ]/(I1 -I2 ), [formula] where C1 = 10C2.

Ggt [2] = experiment: In vivo assay: control of Ggt on wheat in 3-inch pots with infested soil, rated after four weeks;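 on In vivo(ppm) 0.1, percent disease control: rate is mg active ingredient per pot in 3 mL solution not ppm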;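 on In vivo(ppm) 0.5, percent disease control: rate is mg active ingredient per pot in 3 mL solution not ppm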; parameters: species or system Gaeumannomyces graminis var. tritici; conditions: Gaeumannomyces graminis, 672 h; for pest or weed control at 0.02 mg/pot: read-out: In vivo(ppm) 0.02mg/pot, percent disease control; for pest or weed control at 0.1 mg/pot: read-out: In vivo(ppm) 0.1, percent disease control; for pest or weed control at 0.5 mg/pot: read-out: In vivo(ppm) 0.5, percent disease control
Experimental: Compounds are tested for control of Ggt on 'Bergen' or 'Anza' varieties of wheat grown in 3-inch square pots containing soil infested with Ggt. The infestation is accomplished by mixing the soil with an inoculum prepared by growing Ggt on 1/4 strength potato dextrose agar (4.875 g potato dextrose agar, 5.0 g Bacto agar, 500 mL distilled, deionized water) in plates and using plugs from the plates to infest sterile oats (400 cc whole oats, 350 mL deionized water, autoclaved). After a one-month incubation period at room temperature, the oats are dried and mixed with the soil at 4% v/v. Four wheat seeds are placed on top of the soil in each pot. […] Five pots are used for each treatment level and the controls, which are untreated, inoculated and non-inoculated pots. After one hour drying time, the seeds are covered with more of the appropriate soil and a layer of vermiculite. The pots are placed in a growth chamber and watered each day. After four weeks, each pot is evaluated for evidence of disease by examination of the seminal roots of each plant under a dissecting microscope. A 0 to 5 rating scale having the following meanings is used: • 0 = no runner hyphae or lesions present • 1 = runner hyphae and a few small lesions present on <10% of root system • 2 = runner hyphae and small lesions present on 10 - 25% of root system • 3 = runner hyphae and lesions present on 25 - 50% of root system • 4 = runner hyphae and many, large, coalescing lesions on >50% of root system • 5 = root system and culm completely inundated with lesions and runner hyphae
From each set of five replicates a high or low score may be eliminated to assure the best representative scores are used to calculate a replicate mean by averaging the remaining scores. This mean score is then compared to the untreated control score and a percent disease control is calculated.

Ggt [3] = experiment: In vivo (8 week) seed treatment assay: Large Pot Greenhouse Take-All Assay; parameters: species or system Gaeumannomyces graminis var. tritici; conditions: wheat, 6-inch pots, roots rated after 7-10 weeks; for % control (rates are g/kg seed) 0.125: seed treatment 0.125 g/kg seed; for % control (rates are g/kg seed) 0.25: seed treatment 0.25 g/kg seed; for % control (rates are g/kg seed) 0.5: seed treatment 0.5 g/kg seed; for % control (rates are g/kg seed) 1 g: seed treatment 1 g/kg seed
Experimental: An advanced 8-week seed treatment in vivo assay in soil is as follows.
Compounds are tested for control of Ggt on 'Bergen' or 'Anza' varieties of wheat grown in 6-inch round pots containing soil (equal to thirds of Metro-mix, sand, and silt-loam field soil, all steam sterilized). Seeds are treated with a solution of compound of the present invention at 10,000 ppm stock solution in acetone. 20 mg in 2 ml will treat 10 g of seed at each of 4 rates. Using a 10,000 ppm stock for each compound make the following dilutions series:
A treatment jar is rinsed 2 times with 3 ml of actone. Then 1 ml of the solution is swirled to cover the base of the jar. 10 g of seed are added to the jar and capped after which the jar is swirled and shaken until the seeds get a rapid and even coverage. After about 30-50 seconds the lid is removed as the shaking is continued. After 1 minute the jar is set down to dry. When dry, the seed are poured back into the envelope for either planting in the pots or stored until such planting. The method of planting is as follows:
The 6-inch pots are packed to their ledge with the above soil mix.
a) Treated seed is placed on the surface of the soil (packed to ledge) at the rate of 8 seeds per pot with the seeds about 2-3 inches apart. 5 pots (replicates) are planted per treatment. b) 15 ml of oat inoculum (about 4g) are measured and sprinkled evenly over the soil surface of each pot. c) The soil/seed/inoculum is covered with 180 ml of soil mix (same as above). A 150 ml beaker filled to the top edge-is about 180 ml. d) Initially each of the prepared pots is watered lightly several times to wet soil without washing out seeds. e) In cool winter months the prepared pots are left in the greenhouse at 16° - 18°C with only minimal supplemental light. In warmer months the prepared pots are put in a growth chamber set at 17°C for 3-4 weeks to establish disease, then placed in a greenhouse until harvest. The wheat is harvested, washed, and the roots are rated after 7-10 weeks. f) A % of diseased root area is assigned values using 1, 5, 10, 20, 30, 40, 50, 60, 80, or 100 %. Each pot of plants gets a single rating.

[4] = 0.1 ppm in agar, 19 - 20 °C, 4 to 5 days
[5] = 1 ppm in agar, 19 - 20 °C, 4 to 5 days
[6] = 10 ppm in agar, 19 - 20 °C, 4 to 5 days
[7] = rate 0.02mg/pot, wheat, soil infested with Ggt, after four weeks
[8] = rate 0.1 (head prints ppm, head line ends mg/pot), wheat, soil infested with Ggt, after four weeks, N = no control
[9] = rate 0.5 (head prints ppm, head line ends mg/pot), wheat, soil infested with Ggt, after four weeks, N = no control

SMILES | inhibition at 0.1 ppm [1, 4] [%] | inhibition at 1 ppm [1, 5] [%] | inhibition at 10 ppm [1, 6] [%] | pest or weed control at 0.02 mg/pot (Ggt [2]; [7]) [%] | pest or weed control at 0.1 mg/pot (Ggt [2]; [8]) [%] | pest or weed control at 0.5 mg/pot (Ggt [2]; [9]) [%] | % control (rates are g/kg seed) 0.125 (Ggt [3]) [%] | % control (rates are g/kg seed) 0.25 (Ggt [3]) [%] | % control (rates are g/kg seed) 0.5 (Ggt [3]) [%] | % control (rates are g/kg seed) 1 g (Ggt [3]) [%] | IC50 [1] [ng/mL] | inhibition at 0.1 ppm [1] [%] | inhibition at 1 ppm [1] [%] | inhibition at 10 ppm [1] [%] | pest or weed control at 0.02 mg/pot (Ggt [2]; soil) [%] | pest or weed control at 0.1 mg/pot (Ggt [2]; soil) [%] | pest or weed control at 0.5 mg/pot (Ggt [2]; soil) [%]
CCNC(=O)c1c(OC(C)(C)CC)ccc2ccccc12 [Example 26, N-ethyl 2-[(1,1-dimethylpropyl)oxy]-1-naphthamide] | 76 | 95 | 98 | 17 | 56 | 84 | 25 | 25 | 4 | 25 |  |  |  |  |  |  | 
C=CCNC(=O)c1c(OC(C)(C)CC)ccc2ccccc12 [Example 27, N-allyl 2-[(1,1-dimethylpropyl)oxy]-1-naphthamide] | 93 | 98 | 98 | 27 | 75 | 95 | 21 | 21 | 0 | 25 | 8.44 (≈ 0.0284 µM) |  |  |  |  |  | 
C=CCNC(=O)c1c(OC(C)(CC)CC)ccc2ccccc12 [Example 29, N-allyl 2-[(1,1-diethylethyl)oxy]-1-naphthamide] | 96 | 96 | 96 | 40 | 57 | 75 |  | 0 | 4 | 4 | 8.14 (≈ 0.0261 µM) |  |  |  |  |  | 
CCN(CC)C(=O)c1c(OC(C)(CC)CC)ccc2ccccc12 [Example 30, N,N-diethyl 2-[(1,1-diethylethyl)oxy]-1-naphthamide] | 91 | 96 | 96 | 31 | 43 | 28 |  | 22 | 0 | 13 | 7.43 (≈ 0.0227 µM) |  |  |  |  |  | 
CCCNC(=O)c1c(OC(CC)(CC)CC)ccc2ccccc12 [Example 34, N-propyl 2-[(1,1-diethylpropyl)oxy]-1-naphthamide] | 95 | 95 | 95 | 18 | 44 | 49 |  | 17 | 0 | 9 | 6.62 (≈ 0.0202 µM) |  |  |  |  |  | 
C=CCNC(=O)c1c(OC2(C)CCCC2)ccc2ccccc12 [Example 37, N-allyl 2-[(1-methyl-1-cyclopentyl)oxy]-1-naphthamide] | 93 | 98 | 98 | 28 | 53 | 63 | 4 | 4 | 4 | 4 | 7.43 (≈ 0.024 µM) |  |  |  |  |  | 
CCCNC(=O)c1c(OC2(C)CCCCC2)ccc2ccccc12 [Example 40, N-propyl 2-[(1-methyl-1-cyclohexyl)oxy]-1-naphthamide] | 74 | 83 | 98 | 3 | 32 | 60 |  | 13 | 13 | 22 | 63.6 (≈ 0.195 µM) |  |  |  |  |  | 
CCNC(=O)c1c([Si](C)(C)C)ccc2occc12 [Example 42, N-ethyl 5-trimethylsilyl benzofuran-4-carboxamide] |  |  |  |  |  |  |  |  |  |  |  | 90 | 98 | 100 | 68 | 87 | 91
CCNC(=O)c1c([Si](C)(C)C)ccc2ccsc12 [Example 43, N-ethyl 6-trimethylsilyl benzothiophene-7-carboxamide] |  |  |  |  |  |  |  |  |  |  |  | 98 | 100 | 100 | 50 | 79 | 88
